Reference: the supplement of paper PMC10307832

How the values were obtained:
Assay in all cases: relative viability (nuclei count vs DMSO), 5 days (fraction); higher = more cells survive
Alisertib + AZD7762 = compound: COc1cc(Nc2ncc3c(n2)-c2ccc(Cl)cc2C(c2c(F)cccc2OC)=NC3)ccc1C(=O)O [Alisertib] + NC(=O)Nc1cc(-c2cccc(F)c2)sc1C(=O)N[C@H]1CCCNC1 [AZD7762] (partner 0.2 µM)
How it was run: (§1)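 Lung cancer cell lines in 1536-well plates were dosed by pin tool the day after seeding, either with one drug alone or with a fixed anchor-drug dose plus five library-drug doses (not always all listed) in √10 steps. After 5 days, cells were fixed and their nuclei stained in one step (final 0.05% Triton X-100, 1% formaldehyde, 1 ug/ml Hoechst), then counted on 4× images. Relative viability is the nuclei count in treated wells divided by that in vehicle wells. Values are medians of duplicate plates.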

Alisertib + Pemetrexed = compound: COc1cc(Nc2ncc3c(n2)-c2ccc(Cl)cc2C(c2c(F)cccc2OC)=NC3)ccc1C(=O)O [Alisertib] + Nc1nc2[nH]cc(CCc3ccc(C(=O)N[C@@H](CCC(=O)O)C(=O)O)cc3)c2c(=O)[nH]1 [Pemetrexed] (partner 0.2 µM)
How it was run: as §1

Alisertib + OSI-027 = compound: COc1cc(Nc2ncc3c(n2)-c2ccc(Cl)cc2C(c2c(F)cccc2OC)=NC3)ccc1C(=O)O [Alisertib] + COc1cccc2cc(-c3nc([C@H]4CC[C@H](C(=O)O)CC4)n4ncnc(N)c34)[nH]c12 [OSI-027] (partner 0.5 µM)
How it was run: as §1

Alisertib + Foretinib = compound: COc1cc(Nc2ncc3c(n2)-c2ccc(Cl)cc2C(c2c(F)cccc2OC)=NC3)ccc1C(=O)O [Alisertib] + COc1cc2c(Oc3ccc(NC(=O)C4(C(=O)Nc5ccc(F)cc5)CC4)cc3F)ccnc2cc1OCCCN1CCOCC1 [Foretinib] (partner 0.25 µM)
How it was run: as §1

Cell Line: HCC-827
- relative viability (Alisertib + AZD7762; first compound 0.005 µM): 0.18
- relative viability (Alisertib + AZD7762; first compound 0.01581 µM): 0.247
- relative viability (Alisertib + AZD7762; first compound 0.05 µM): 0.206
- relative viability (Alisertib + AZD7762; first compound 0.1581 µM): 0.123
- relative viability (Alisertib + AZD7762; first compound 0.5 µM): 0.15
- relative viability (Alisertib + Pemetrexed; first compound 0.005 µM): 0.277
- relative viability (Alisertib + Pemetrexed; first compound 0.01581 µM): 0.264
- relative viability (Alisertib + Pemetrexed; first compound 0.05 µM): 0.25
- relative viability (Alisertib + Pemetrexed; first compound 0.1581 µM): 0.232
- relative viability (Alisertib + Pemetrexed; first compound 0.5 µM): 0.173
- relative viability (Alisertib + OSI-027; first compound 0.005 µM): 0.722
- relative viability (Alisertib + OSI-027; first compound 0.01581 µM): 0.755
- relative viability (Alisertib + OSI-027; first compound 0.05 µM): 0.685
- relative viability (Alisertib + OSI-027; first compound 0.1581 µM): 0.257
- relative viability (Alisertib + OSI-027; first compound 0.5 µM): 0.18
- relative viability (Alisertib + Foretinib; first compound 0.005 µM): 1.05
- relative viability (Alisertib + Foretinib; first compound 0.01581 µM): 0.726
- relative viability (Alisertib + Foretinib; first compound 0.05 µM): 0.333
- relative viability (Alisertib + Foretinib; first compound 0.1581 µM): 0.276
- relative viability (Alisertib + Foretinib; first compound 0.5 µM): 0.237

Cell Line: HCC-78
- relative viability (Alisertib + AZD7762; first compound 0.005 µM): 0.544
- relative viability (Alisertib + AZD7762; first compound 0.01581 µM): 0.569
- relative viability (Alisertib + AZD7762; first compound 0.05 µM): 0.363
- relative viability (Alisertib + AZD7762; first compound 0.1581 µM): 0.23
- relative viability (Alisertib + AZD7762; first compound 0.5 µM): 0.28
- relative viability (Alisertib + Pemetrexed; first compound 0.005 µM): 0.889
- relative viability (Alisertib + Pemetrexed; first compound 0.01581 µM): 0.909
- relative viability (Alisertib + Pemetrexed; first compound 0.05 µM): 0.895
- relative viability (Alisertib + Pemetrexed; first compound 0.1581 µM): 0.959
- relative viability (Alisertib + Pemetrexed; first compound 0.5 µM): 0.926
- relative viability (Alisertib + OSI-027; first compound 0.005 µM): 0.536
- relative viability (Alisertib + OSI-027; first compound 0.01581 µM): 0.354
- relative viability (Alisertib + OSI-027; first compound 0.05 µM): 0.244
- relative viability (Alisertib + OSI-027; first compound 0.1581 µM): 0.244
- relative viability (Alisertib + OSI-027; first compound 0.5 µM): 0.241
- relative viability (Alisertib + Foretinib; first compound 0.005 µM): 0.548
- relative viability (Alisertib + Foretinib; first compound 0.01581 µM): 0.438
- relative viability (Alisertib + Foretinib; first compound 0.05 µM): 0.329
- relative viability (Alisertib + Foretinib; first compound 0.1581 µM): 0.238
- relative viability (Alisertib + Foretinib; first compound 0.5 µM): 0.275

Cell Line: NCI-H2085
- relative viability (Alisertib + AZD7762; first compound 0.005 µM): 0.876
- relative viability (Alisertib + AZD7762; first compound 0.01581 µM): 0.874
- relative viability (Alisertib + AZD7762; first compound 0.05 µM): 0.882
- relative viability (Alisertib + AZD7762; first compound 0.1581 µM): 0.284
- relative viability (Alisertib + AZD7762; first compound 0.5 µM): 0.348
- relative viability (Alisertib + Pemetrexed; first compound 0.005 µM): 0.638
- relative viability (Alisertib + Pemetrexed; first compound 0.01581 µM): 0.896
- relative viability (Alisertib + Pemetrexed; first compound 0.05 µM): 0.837
- relative viability (Alisertib + Pemetrexed; first compound 0.1581 µM): 0.27
- relative viability (Alisertib + Pemetrexed; first compound 0.5 µM): 0.294
- relative viability (Alisertib + OSI-027; first compound 0.005 µM): 0.591
- relative viability (Alisertib + OSI-027; first compound 0.01581 µM): 0.746
- relative viability (Alisertib + OSI-027; first compound 0.05 µM): 0.469
- relative viability (Alisertib + OSI-027; first compound 0.1581 µM): 0.222
- relative viability (Alisertib + OSI-027; first compound 0.5 µM): 0.235
- relative viability (Alisertib + Foretinib; first compound 0.005 µM): 1.03
- relative viability (Alisertib + Foretinib; first compound 0.01581 µM): 0.812
- relative viability (Alisertib + Foretinib; first compound 0.05 µM): 0.309
- relative viability (Alisertib + Foretinib; first compound 0.1581 µM): 0.259
- relative viability (Alisertib + Foretinib; first compound 0.5 µM): 0.228

Cell Line: PC-3 [JPC-3]
- relative viability (Alisertib + AZD7762; first compound 0.005 µM): 0.649
- relative viability (Alisertib + AZD7762; first compound 0.01581 µM): 0.778
- relative viability (Alisertib + AZD7762; first compound 0.05 µM): 0.705
- relative viability (Alisertib + AZD7762; first compound 0.1581 µM): 0.403
- relative viability (Alisertib + AZD7762; first compound 0.5 µM): 0.317
- relative viability (Alisertib + Pemetrexed; first compound 0.005 µM): 1.06
- relative viability (Alisertib + Pemetrexed; first compound 0.01581 µM): 0.988
- relative viability (Alisertib + Pemetrexed; first compound 0.05 µM): 0.885
- relative viability (Alisertib + Pemetrexed; first compound 0.1581 µM): 0.388
- relative viability (Alisertib + Pemetrexed; first compound 0.5 µM): 0.287
- relative viability (Alisertib + OSI-027; first compound 0.005 µM): 0.784
- relative viability (Alisertib + OSI-027; first compound 0.01581 µM): 0.764
- relative viability (Alisertib + OSI-027; first compound 0.05 µM): 0.703
- relative viability (Alisertib + OSI-027; first compound 0.1581 µM): 0.407
- relative viability (Alisertib + OSI-027; first compound 0.5 µM): 0.306
- relative viability (Alisertib + Foretinib; first compound 0.005 µM): 0.97
- relative viability (Alisertib + Foretinib; first compound 0.01581 µM): 0.868
- relative viability (Alisertib + Foretinib; first compound 0.05 µM): 0.706
- relative viability (Alisertib + Foretinib; first compound 0.1581 µM): 0.531
- relative viability (Alisertib + Foretinib; first compound 0.5 µM): 0.398
